Paper PMC11874007, “Switching Roles—Exploring Concentration-Dependent Agonistic versus Antagonistic Behavior of Integrin Ligands” (Journal of Medicinal Chemistry, 2025)
Values joined by “and” are separate entries in the source; they are usually repeats but may differ in a detail not shown here. Equal entries are not always repeated.

Tests used:
human α5β1-integrin = target: T1, human α5β1-integrin (Homo sapiens, UniProt P05556+P08648); assay: ELISA-type solid-phase binding assay: soluble α5β1 competing for immobilized fibronectin; details: competitive ELISA-type assay, referenced to internal standard cilengitide (L2)
T1 construct: purchased R&D 3230-A5-050
Procedure: Prior to the biological evaluation of the ligands, their specificity and subtype-selective affinity was analyzed by an ELISA (enzyme-linked immune sorbent assay)-type solid-phase ligand binding assay[59] by measuring the competitive binding of soluble purified integrins in the presence of the respective ligands to plate-immobilized purified ECM proteins, as described in Experimental Section: vitronectin (for αvβ3-directed ligands), fibronectin (for α5β1-directed ligands), or the latency-associated peptide (LAP) of transforming growth factor-β (TGF-β) (for αvβ6-directed ligands). Then, we determined whether Cy5.5 conjugation of ligands led to altered ligand binding affinities and integrin subtype selectivity compared to the unlabeled compounds. In the following, we describe in detail the alterations detected.
(3) 2.0 μg/mL mouse-anti-human CD51/61 (BD Biosciences, Franklin Lakes, New Jersey, USA; #555504). (4) 2.0 μg/mL anti-mouse IgG-POD (Sigma-Aldrich, #A9044-2ML). Integrin αvβ6: (1) 0.4 μg/mL LAP (TGF-β) (R&D, #246-LP-025), (2) 0.5 μg/mL human αvβ6 (R&D, #3817-AV-050), (3) 1:500 dilution mouse-anti-human αv (MAB1978) (Merck Millipore, #MAB1978), (4) 2.0 μg/mL anti-mouse IgG-POD (Sigma-Aldrich, #A9044-2ML). Integrin α5β1: (1) 0.5 μg/mL human fibronectin (Sigma-Aldrich, #F0895-1MG), (2) 2.0 μg/mL human α5β1 (R&D, 3230-A5-050), (3) 1.0 μg/mL mouse-anti-human CD49e (BD Biosciences, #555651), (4) 2.0 μg/mL anti-mouse IgG-POD (Sigma-Aldrich, #A9044-2 ML). For Western blot analysis, the following antibodies were used: (p-)p44/42^(erk-1/2) (1) 1:300 dilution of rabbit-anti-human p44/42^(erk-1/2) antibody (Cell Signaling Technology, Frankfurt, Germany, #9102) in 3% (w/v) bovine serum albumin (BSA)/TBS-T, (2) 1:5,000 dilution goat-anti-rabbit horseradish-conjugated secondary antibody in 1% (w/v) BSA/TBS-T. Phospho-p44/42^(erk-1/2): (1) 1:200 dilution rabbit-anti-human p44/42^(erk-1/2) (Thr202/Tyr204) antibody (Cell Signaling Technology, #9101) in 3% (w/v) BSA/TBS-T, (2) 1:5,000 dilution goat-anti-rabbit horseradish-conjugated secondary antibody in 1% (w/v) BSA/TBS-T. FAK: (1) 1:300 dilution mouse-anti-human FAK antibody (Cell Signaling Technology, #9102) in 3% (w/v) BSA/TBS-T, (2) 1:5,000 dilution goat-anti-mouse horseradish-conjugated secondary antibody in 1% (w/v) BSA/TBS-T. Phospho-FAK: (1) 1:300 dilution mouse-anti-human p-FAK antibody (Cell Signaling Technology) in 3% (w/v) BSA/TBS-T, (2) 1:5,000 dilution goat-antimouse horseradish-conjugated secondary antibody in 1% (w/v) BSA/TBS-T. Differences in blotting efficiency and protein loading were normalized by using a primary antibody against glyceraldehyde-3-phosphate dehydrogenase (GAPDH, 1:10,000 dilution in 1% (w/v) BSA/TBS-T, at RT for 45 min (Millipore, Schwalbach, Germany) and a secondary horseradish-conjugated goat-anti-mouse antibody (1:10,000 dilution in 1% (w/v) BSA/TBS-T, 40 min at RT).
The integrin binding assay was done to assess the specificity and subtype-selective affinity of L1–L5 and their respective Cy5.5-conjugated ligands by using isolated and purified integrins in cell-free ligand binding assays, as previously published.[59]Table 2 summarizes the used ECM ligands, integrins, and antibodies. In brief, flat-bottom 96-well plates were coated overnight at 4 °C with the natural ECM integrin ligands, vitronectin (for αvβ3-directed ligands), fibronectin (for α5β1-directed ligands), or LAP of TGF-β1 (for αvβ6-directed ligands) (100 μL/well in buffer containing 15 mM Na2CO3, 35 mM NaHCO3, pH 9.6). Subsequently, each well was washed in PBS, 0.01% (v/v) Tween 20, 137 mM NaCl, 2.7 mM KCl, 10 mM Na2HPO4, 2 mM KH2PO4, pH 7.4 (PBS-T), and blocked for unspecific binding events for 1 h at RT in 20 mM Tris–HCl, pH 7.5, 150 mM NaCl, 1 mM CaCl2, 1 mM MgCl2, 1 mM MnCl2, and 1% (w/v) BSA. Meanwhile, dilution series of the different integrin ligands and the internal standards were prepared, ranging from 20 μM to 256 pM in 1:5 dilution steps. […]

human αvβ6-integrin = target: T2, human αvβ6-integrin (Homo sapiens, UniProt P06756+P18564); assay: ELISA-type solid-phase binding assay: soluble αvβ6 competing for immobilized LAP (TGF-β); details: competitive ELISA-type assay, referenced to internal standard RTDLDSLRT
T2 construct: purchased R&D 3817-AV-050

[1] = tested on: M21 (αvβ3+), HN (αvβ6+), RKO (α5β1+) cells; assay: Time-dependent cellular uptake of Cy5.5-labeled ligands in cells overexpressing the targeted integrin; type: cell-based; details: state within 30 min, Cy5.5-conjugated ligands, target integrin-expressing cells
Source text: For intracellular drug delivery, integrin ligands designed as drug-conjugated vehicles have to be easily and selectively internalized by tumor cells (over)expressing the respective targeted integrin subtype. […] It should be noted here that HN, OV-MZ-6, and RKO cells also express low αvβ3 expression levels.
Figure 7 Cellular uptake of Cy5.5-labeled integrin ligands. […] Nuclei were costained with Hoechst 33342 (blue signal) and cell membranes with CellMask Green (green signal). Merge of stains (yellow signal) indicated colocalization of ligands at the cell membrane. Scale bar: 50 μm.
Microchamber cell culture slides were coated with fibronectin (2 μg/mL), followed by cell seeding at a density of 50,000 cells/well. After 24 h of cultivation, cells were treated with integrin ligands L1-Cy5.5 to L5-Cy5.5 (1 μM in 0.01% (w/v) CaCl2 and 0.1% (w/v) BSA in PBS; 250 μL/well) for 3, 30, 60, or 300 min at 37 °C. The cells were washed in PBS/0.01% (w/v) CaCl2 (6 × 800 μL) and the fluorescence signal intensity recorded using the LSM 700 microscope (Zeiss, Jena, Germany). CellMask Green Plasma Membrane Stain was used to stain the cell membrane; nuclei were stained with Hoechst 33342.

Row | Compound | IC50 (human α5β1-integrin) | IC50 (human αvβ6-integrin) | Endocytosis of Cy5.5-conjugated ligand [1]
1 | C#CCCC(=O)NCCCOc1cc(C)c(C(=O)N[C@@H](CNC(=O)CNC(=O)c2cccc(NC(=N)N)c2)C(=O)O)c(C)c1 [L5, (S)-2-(2,6-Dimethyl-4-(3-(pent-4-ynamido)propoxy)benzamido)-3-(2-(3-guanidinobenzamido)acetamido)propanoic Acid] | 1.2 nM and 1.24 nM | > 1000 nM | 
2 | C#CCCC(=O)NCCCOc1ccc(C(=O)N[C@H](CC(=O)O)Cc2ccc(OCCCNc3cc(OC)ccn3)cc2)cc1 [L1, (S)-4-(4-(3-((4-Methoxypyridin-2-yl)amino)propoxy)phenyl)-3-(4-(3-(pent-4-ynamido)propoxy)benzamido)butanoic Acid] | 73.4 ± 16.6 nM | 152 ± 60.8 nM | started within 30 min
3 | c(FRGDLAFp(NMe)K) [L3] |  |  | already completed
